Laboratory results: PubChem BioAssay (NCI)
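1) Cells in 96-well plates. 2) Compound, 48 h, 5 concentrations. 3) Linear interpolation between surrounding doses. 4) Unreached endpoint = highest concentration. TGI is the concentration that stops growth completely.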

Key:
Test in all cases: growth of human tumour cells (NCI), 48 h
MDA-N = system: MDA-N
NCI/ADR-RES ovarian = system: NCI/ADR-RES ovarian
786-0 renal = system: 786-0 renal
OVCAR-4 ovarian = system: OVCAR-4 ovarian
RPMI-8226 leukemia = system: RPMI-8226 leukemia
MALME-3M melanoma = system: MALME-3M melanoma
BT-549 breast = system: BT-549 breast
SN12C renal = system: SN12C renal
MDA-MB-435 = system: MDA-MB-435
A549 NSCLC = system: A549 NSCLC
EKVX NSCLC = system: EKVX NSCLC

| SMILES | TGI (MDA-N) | TGI (NCI/ADR-RES ovarian) | TGI (786-0 renal) | TGI (OVCAR-4 ovarian) | TGI (RPMI-8226 leukemia) | TGI (MALME-3M melanoma) | TGI (BT-549 breast) | TGI (SN12C renal) | TGI (MDA-MB-435) | TGI (A549 NSCLC) | TGI (EKVX NSCLC) |
| --- | --- | --- | --- | --- | --- | --- | --- | --- | --- | --- | --- |
| O=C1C(Cl)C(c2cccc(Br)c2)N1c1c(O)c(Cl)cc(Br)c1Cl (stereo not given) | 53.3 µM | 89.8 µM | > 100 µM | 24.7 µM | 37.9 µM | 55.3 µM | > 100 µM | 28.3 µM | 31.1 µM | 40 µM | 39 µM |
| Cc1cccc(Nc2nc(NNC(=O)Cc3ccccc3)nc(NNC(=O)c3ccncc3)n2)c1 | > 10 µM | > 10 µM | > 10 µM | > 10 µM | > 10 µM | > 10 µM | > 10 µM | > 10 µM | > 10 µM | > 10 µM | > 10 µM |
| C[N+]1(CCCC[N+]2(C)CCCCCCC2)CCCCCCC1 | > 100 µM | > 100 µM | > 100 µM | > 100 µM | > 100 µM | > 100 µM | > 100 µM | > 100 µM | > 100 µM | > 100 µM | > 100 µM |
| O=C(/C=C/c1ccc(O)cc1)c1cc(O)cc(O)c1 | 26.7 µM | > 100 µM | 30.6 µM | 44.6 µM | 21.3 µM | 47.3 µM | 29.8 µM | 28.4 µM | 38.9 µM | 30.6 µM | 32.5 µM |
| COC(=O)C(CCSc1ccccc1)C(=O)OC | > 100 µM | > 100 µM | > 100 µM | > 100 µM | > 100 µM | > 100 µM | > 100 µM | > 100 µM | > 100 µM | > 100 µM | > 100 µM |
| Cc1ccc(Nc2cc(=O)[nH]c(=O)[nH]2)cc1CS | > 100 µM | > 100 µM | > 100 µM | > 100 µM | > 100 µM | > 100 µM | > 100 µM | > 100 µM | > 100 µM | > 100 µM | > 100 µM |
| CCCCCCCCCCCCCCCCNc1ccc2c(c1)OCCOCCOCCOCCO2 | 12.8 µM | 6.4 µM | 13.8 µM | 17.6 µM | 4.49 µM | 13.6 µM | 11.6 µM | 10.5 µM | 11.1 µM | 14.5 µM | 14.4 µM |
| Cc1n(-c2ccccc2)c2c([n+]1Cc1ccc([N+](=O)[O-])cc1)C(=O)c1ccccc1C2=O | 3.16 µM | 5.61 µM | 14.7 µM | 3.2 µM | 3.82 µM | 3.05 µM | 3.18 µM | 3.08 µM | 3.12 µM | 10.7 µM | 5.7 µM |
| Cc1ccc(N=Nc2c(C)nn(C(=O)CC(=O)Nc3ccc(Cl)cc3)c2C)cc1C | > 100 µM | > 100 µM | > 100 µM | > 100 µM | > 100 µM | > 100 µM | > 100 µM | > 100 µM | > 100 µM | > 100 µM | > 100 µM |
| Cc1nc2ccc(S(=O)(=O)Nc3ccccc3Cl)cc2c(=O)n1NC(=O)CNc1ccccc1Cl | > 100 µM | > 100 µM | > 100 µM | > 100 µM | > 100 µM | > 100 µM | > 100 µM | > 100 µM | > 100 µM | > 100 µM | > 100 µM |
| Cc1ccc(S(=O)(=O)c2ccsc2NC(=O)c2ccccc2)cc1 | > 100 µM | > 100 µM | > 79.6 µM | 73.6 µM | > 100 µM | > 100 µM | > 100 µM | > 100 µM | > 100 µM | > 100 µM | > 100 µM |
| O=C(O)c1nc2cc(C(F)(F)F)ccc2[nH]c1=O | > 100 µM | > 100 µM | > 100 µM | > 100 µM | > 100 µM | > 100 µM | > 100 µM | > 100 µM | > 100 µM | > 100 µM | > 100 µM |
| O=C(Oc1ccc(OC(Oc2ccccc2)c2ccccc2)cc1)c1ccccc1 (stereo not given) | > 31.6 µM | > 31.6 µM | > 31.6 µM | > 31.6 µM | 24.1 µM | 18.8 µM | > 31.6 µM | > 31.6 µM | > 31.6 µM | > 31.6 µM | > 31.6 µM |
| Cc1ccc(C2SC(N)=Nc3c2c(C)nn3C(=O)c2ccc(Cl)cc2)cc1 (stereo not given) | > 10 µM | > 10 µM | > 10 µM | > 10 µM | > 10 µM | > 10 µM | > 10 µM | > 10 µM | > 10 µM | > 10 µM | > 10 µM |
| C=CCN1C[C@@H](C)N([C@@H](c2ccccc2)c2ccc(C(=O)N(CC)CC)cc2)C[C@@H]1C | > 100 µM | > 100 µM | > 100 µM | > 100 µM | > 100 µM | > 100 µM | > 100 µM | > 100 µM | > 100 µM | > 100 µM | > 100 µM |
| Cc1cn(C2CC(N=[N+]=[N-])C(C(=O)O)O2)c(=O)[nH]c1=O (stereo not given) | > 100 µM | > 100 µM | > 100 µM | > 100 µM | > 100 µM | > 100 µM | > 100 µM | > 100 µM | > 100 µM | > 100 µM | > 100 µM |
| CCN(CC)CCOCC1CCCN2CCCCC12 (stereo not given) | > 100 µM | > 100 µM | > 100 µM | > 100 µM | > 100 µM | > 100 µM | > 100 µM | > 100 µM | > 100 µM | > 100 µM | > 100 µM |
| CCCCCCCCCCCCCCC[C@@H](O)C[N+](C)(C)CCO | 29.5 µM | 34.3 µM | 3.07 µM | 22.9 µM | > 100 µM | 15.4 µM | 3.63 µM | 50.8 µM | 33.4 µM | 29.1 µM | 37.4 µM |
| O=c1[nH]cnc2c1ncn2C1SC(CO)C(O)C1O (stereo not given) | > 100 µM | > 100 µM | > 100 µM | > 100 µM | > 100 µM | > 100 µM | > 100 µM | > 100 µM | > 100 µM | > 100 µM | > 100 µM |
| O=C1c2ccccc2-n2c1nc1cc(Cl)ccc1c2=O | 29.1 µM | > 100 µM | > 100 µM | > 100 µM | > 100 µM | 21.9 µM | > 100 µM | > 100 µM | 4.23 µM | > 100 µM | > 100 µM |
| CC1=C(c2ccc(C)cc2)NC(=S)C(C)C(c2ccc(C)cc2)=N1 (stereo not given) | > 100 µM | > 100 µM | > 100 µM | > 100 µM | > 100 µM | > 100 µM | > 100 µM | > 100 µM | > 100 µM | > 100 µM | > 100 µM |
| C=CCN(c1cc(OCc2ccccc2)c2c(c1)c(C)cn2S(=O)(=O)c1ccccc1)S(C)(=O)=O | > 100 µM | > 100 µM | > 100 µM | > 100 µM | > 100 µM | > 100 µM | > 100 µM | > 100 µM | > 100 µM | > 100 µM | > 100 µM |
| Cc1cccc2c(N)c3cccc(C(=O)NCCN4CCOCC4)c3nc12 | 2.91 µM | 42.8 µM | 20.5 µM | 6.69 µM | > 60.4 µM | 1.31 µM | 8.54 µM | 7.97 µM | 2.12 µM | 7.92 µM | 5.66 µM |
| COc1ccc2[nH]cc(CN3CCC(CO)(c4ccccc4)CC3)c2c1 | 38.3 µM | > 100 µM | 28.6 µM | > 100 µM | 66 µM | 62.3 µM | > 100 µM | > 100 µM | 47.6 µM | 57.3 µM | 24 µM |
| COC(=O)c1c2c(cc3c1CC1(C3)Cc3ccc4c(c3C1=O)CCC4)CCC2 (stereo not given) | 2.81 µM | > 22.5 µM | > 56.1 µM | > 92 µM | > 72.6 µM | > 45.5 µM | > 42.9 µM | > 100 µM | 3.22 µM | > 100 µM | > 100 µM |
| O=C(Nn1c(-c2ccccc2)nc2ccccc2c1=O)c1ccc(O)cc1 | > 100 µM | > 100 µM | > 100 µM | > 100 µM | > 100 µM | > 100 µM | > 100 µM | > 100 µM | > 100 µM | > 100 µM | > 100 µM |
| COc1cc(S(=O)(=O)Nc2ccc(-c3csc(/N=C\C=C\c4ccccc4)n3)cc2)ccc1Cl | > 100 µM | > 100 µM | > 100 µM | > 100 µM | > 100 µM | > 100 µM | > 100 µM | > 100 µM | > 100 µM | > 100 µM | > 100 µM |
| CCN(CC)c1nc(=O)c(C(=O)C(C)(C)C)c(C(C)(C)C)o1 | > 100 µM | > 100 µM | > 100 µM | > 100 µM | > 100 µM | > 100 µM | > 100 µM | > 100 µM | > 100 µM | > 100 µM | > 100 µM |
| O=c1c2ccccc2n2n1Cc1ccccc1C2 | > 100 µM | > 100 µM | > 100 µM | > 100 µM | > 100 µM | > 100 µM | > 100 µM | > 100 µM | > 100 µM | > 100 µM | > 100 µM |
| Nc1ccc(-c2nc3ccccc3s2)cc1I | > 100 µM | > 100 µM | > 100 µM | > 100 µM | > 100 µM | > 100 µM | > 100 µM | > 100 µM | > 100 µM | > 100 µM | > 100 µM |
